Literature values, collected in US7006921B1, “Method for accurately estimating pKa of molecules using atom type definitions and partial least squares” (priority 1999, dated 2006).

Conditions: for Measured (pKa): first or only pKa; for Measured (pKa2): second value of the cell

CC(=O)OCCN(C)C [2-(dimethylamino)-ethyl acetate, 2-(dimethylamino)-ethyl acetate]
Measured (pKa): 8.35

O=C(O)c1ccc(Br)cc1C(=O)O [4-bromo-1,2-benzenedicarboxylic acid, 4-bromo-1,2-benzenedicarboxylic acid]
Measured (pKa): 2.5

NCCNCCO [5-amino-3-azapentanol, 5-amino-3-azapentanol]
Measured (pKa): 9.82

c1c[nH]cn1 [imidazole]
Measured (pKa): 6.04

Oc1cccnc1 [3-hydroxypyridine]
Measured (pKa): 4.80
Measured (pKa2): 8.74

O=C(O)c1cc[nH]n1 [Pyrazole-3-carboxlylic acid, Pyrazole-3-carboxlylic acid]
Measured (pKa): 3.74

CC#CCN(C)C [N,N-dimethyl-2-butyn-1-amine, N,N-dimethyl-2-butyn-1-amine]
Measured (pKa): 8.28

Nc1ccc(Br)c([N+](=O)[O-])c1 [4-bromo-3-nitroaniline, 4-bromo-3-nitroaniline]
Measured (pKa): 1.80

C1N2CN3CN1CN(C2)C3 [Hexamethylenetetramine]
Measured (pKa): 6.2

Cc1cc(O)cc(C)c1Cl [4-chloro-3,5-dimethylphenol, 4-chloro-3,5-dimethylphenol]
Measured (pKa): 9.71

Nc1cc(Cl)ncn1 [4-amino-6-chloropyrimidine, 4-amino-6-chloropyrimidine]
Measured (pKa): 2.10

CNCC(N)=O [2-(methylamino)-acetamide, 2-(methylamino)-acetamide]
Measured (pKa): 8.31

Nc1ccnnc1 [4-aminopyridazine]
Measured (pKa): 6.65

COc1cc(C(=O)O)cc(OC)c1O [4-hydroxy-3,5-dimethoxybenzoic acid, 4-hydroxy-3,5-dimethoxybenzoic acid]
Measured (pKa): 4.34

Oc1c(O)c(O)c(O)c(O)c1O [Benzenehexol]
Measured (pKa): 9.0

NC1CCCCCC1O (stereo not shown) [2-aminocycloheptanol]
Measured (pKa): 9.25

CSCC[C@H](N)C(=O)O [Methionine]
Measured (pKa): 2.17
Measured (pKa2): 9.20

COc1cncc(Br)c1 [3-bromo-5-methoxypyridine, 3-bromo-5-methoxypyridine]
Measured (pKa): 2.60

CC(=O)c1cccnc1 [3-acetylpyridine]
Measured (pKa): 3.26

O=C(O)c1cc(Br)c[nH]1 [4-bromopyrrol-2-carboxylic acid, 4-bromopyrrol-2-carboxylic acid]
Measured (pKa): 4.06

CC(C)NCC(O)C1CCC(O)CC1 (stereo not shown) [1-(4′-hydroxycyclohexyl)-2-(isopropylamino)-ethanol]
Measured (pKa): 10.23

CC(=O)C(CC(=O)O)C(=O)O (stereo not shown) [2-acetylbutanedioic acid, 2-acetylbutanedioic acid]
Measured (pKa): 2.86

NCCSCCSCCN [1,8-diamino-3,6-dithiaoctane, 1,8-diamino-3,6-dithiaoctane]
Measured (pKa): 9.47

O=C(O)c1cnn[nH]1 [1,2,3-triazole-4-carboxylic acid, 1,2,3-triazole-4-carboxylic acid]
Measured (pKa): 3.22

O=C(O)c1coc(C(=O)O)c1 [Furan-2,4-dicarboxylic acid, Furan-2,4-dicarboxylic acid]
Measured (pKa): 2.63

Oc1cccc(O)c1O [Pyrogallol]
Measured (pKa): 9.12
